# Reference: patent US5460797A, “Method for fixing tissues and cells for analysis using oxazolidine compounds” (Streck Laboratories, Inc., priority 1994, dated 1995)
# Like-named read-outs stand apart in the source and are kept apart here.
# Legend:
# 6C3HED lymphosarcoma = assay: Tumor immunization with fixed ascites cells and challenge with viable cells; format: in vivo, C3H mice; details: cells fixed in 3% agent; two immunizations; challenge 100,000 viable cells i.p.; ">65" is given as "No deaths at 65 days"
# Procedure: (§1) Tumor Immunization. 6C3HED lymphosarcoma was grown in C3H mice as ascites (ascites cause collection of fluid in the peritoneal cavity). The ascites cells were then washed in phosphate buffered saline (PBS) containing 3% IDU, 3% Glydant, or 3% Dimethylol urea. The cells were then placed at 6° C. for 48 hours.
# As a control for immunization, cells were also washed into PBS containing 3% para formaldehyde and held under the same conditions. After 48 hours, all the cell groups were washed into PBS to remove the fixatives. The cell count was adjusted to 200,000/ml. Five C3H mice were injected with each of the cell groups for the first immunization. The procedure was repeated two weeks later.
# The immunized mice were challenged with 100,000 viable 63HED ascites cells by intraperitoneal injection. The efficacy of the immunization was determined by the average death time for each group of mice.
# WBC's = assay: WBC fixation (cells do not disintegrate or clump after removal of compound); format: cell-based; details: 6% w/v solution, 24 hours, 22° C
# Procedure: (§2) A 6% w/v solution of each compound was used and samples tested at 24 hours (22° C). […] Relative RBC fixation was detected by adding known RBC lysing agent. […] Fixing is relative and depends on how long you want cells or tissues to remain fixed.
# RBC's = assay: Relative RBC fixation detected by adding RBC lysing agent; format: cell-based; details: 6% w/v solution, 24 hours, 22° C
# Procedure: as §2
# [1] = test system: 6C3HED lymphosarcoma ascites cells; assay: Vital staining of ascites cells held in fixative 48 hours; format: cell-based, C3H mice; details: 3% in PBS, 6° C.
# Procedure: as §1
# human white blood cells = assay: Stabilization of white blood cells for flow cytometry (leukocyte positive control); format: cell-based
# Text: Leukocyte Positive Control Check for Antigen-Antibody Studies. Positive control methods are needed to verify the performance of reagents, preparation methods, staining procedures as well as the performance of the flow cytometer instrumentation itself. This requires a preparation of human white blood cells, preferably with a mixed distribution of leukocytes (lymphocytes, monocytes, and granulocytes), to evaluate the performance of the procedure before it is used to evaluate subject tissues, cells, or cell components. While much of the methodology used in this procedure is familiar to those skilled in the art, this invention is novel in its use of imidazolidinyl urea (IDU) as a cell stabilizer, the use of polyethylene glycol to reduce damage to the white blood cells during processing, the use of PMSF to inhibit protease activity, and the process itself.
# The invention discloses a new method of producing a positive control check material with significant advances over the prior art. Production is begun by placing one pack of human white blood cells, obtainable from commercial blood banks, in each bottle of the centrifuge. Samples from each pack are placed into a plastic tube for screening on the flow cytometer. Because of the considerable variation from donor to donor in cluster designation antigen sites, only packs with similar properties are pooled. Each product pool should be limited to a particular ABO blood type to prevent clumping as a result of a histoin-compatibility reaction between the cells. The samples are placed into plastic tubes rather than glass because unfixed white blood cells may be activated by the glass causing them to adhere to the glass and each other.
# The cells are prefixed 1:1 with 1% IDU in phosphate buffered saline ethylenediaminetetraacetic acid (PBS-EDTA) at 6° C. for one hour. […] The cells and all diluents used in the processing must be kept at 6° C. at all times by use of refrigeration and a chiller bath to reduce the amount of cell damage which alters the scattergram.
# The bottle are next centrifuged at 900 rpm for 10 minutes, and the supernatant is removed. This angular velocity is sufficient to pellet the white blood cells without damaging them. Ammonium chloride tris, 200 ml/bottle set at 6° C. for 20-30 minutes, is then used to lyse the red blood cells.
# A second centrifugation follows, again at 900 rpm for 10 minutes, and the supernatant is removed. Next 250 ml/bottle of ammonium chloride tris are added at 6° C. or 45-60 minutes, with 60 minutes usually ensuring complete lysis of the red blood cells.
# The material is then centrifuged a third time at 900 rpm for 10 minutes and then the supernatant is removed. […]
# [2] = Formaldehyde content or release; format: physicochemical
# tetanus toxin = format: in vivo, Swiss mice
# albumin = details: 24 hours incubation
# Procedure: Formaldehyde cross-links with itself and proteins to obscure the antigen. To determine if this is true, diazolidinyl urea was added to the protein, albumin.
# [3] = Toxicity studies comparing diazolidinyl urea with formaldehyde; format: in vivo; details: for LD50: route and species not given
# Text: Unlike the typical histological fixing agents, the active agents of the invention have extremely low toxicity. For example, toxicity studies comparing diazolidinyl urea of the invention with formaldehyde of the prior art show the following: […]
# [4] = solution (Glydant), as such (Suttocide)
molecule,measurement,setting,value
"O=C(NCO)NCO [Dimethylol urea, dimethylol urea]",Average Death Days,6C3HED lymphosarcoma,> 65 days
imidazolidinyl urea,Fixation of WBC's,WBC's,Fixes both RBC's and WBC's
same,Fixation of RBC's,RBC's,Fixes both RBC's and WBC's
same,Average Death Days,6C3HED lymphosarcoma,> 65 days
same,Viability by vital staining,[1],none of the cells were viable
same,"Effect on white blood cells, prefixation","human white blood cells; 1% IDU in PBS-EDTA, 1:1, 6° C., one hour",stabilize the white blood cells without interfering with the lysis of the red blood cells
same,"Effect on cells, fixation","human white blood cells; 3% IDU, 6° C., 2 days",stabilizes the cells for use on the flow cytometer
same,"Effect on cells, fixation at higher concentrations",human white blood cells; IDU concentrations higher than 3%,causing cells to lose the cluster designation marker and produce scatterplot changes
same,"Effect on cells, fixation at lower concentrations",human white blood cells; IDU concentrations lower than 3%,reducing stability
same,Formaldehyde release,[2],Decomposition releases formaldehyde
same,"percent increase in antibody titer over formalin, 14 Days",tetanus toxin; 14 days,200%
same,"percent increase in antibody titer over formalin, 28 Days",tetanus toxin; 28 days,560%
diazolidinyl urea,Fixation of WBC's,WBC's,Fixes both RBC's and WBC's
same,Disc-gel electrophoresis result with albumin,albumin,no change in the rate of migration of the protein
same,Dermal Toxicity,[3]; in vivo,2000 mg/kg
same,Inhalation Toxicity,[3]; in vivo,None
same,LD50,[3],2570 mg/kg
same,Fixation of RBC's,RBC's,Fixes both RBC's and WBC's
same,Formaldehyde content,[2],1-2 ppm
"CC1(C)C(=O)N(CO)C(=O)N1CO [Glydant, Dimethylol-5,5-dimethylhydantoin]",Fixation of WBC's,WBC's,Fixes both RBC's and WBC's
same,Fixation of RBC's,RBC's,Fixes both RBC's and WBC's
same,Average Death Days,6C3HED lymphosarcoma,> 65 days
same,Viability by vital staining,[1],none of the cells were viable
same,Formaldehyde content,[2]; [4],2.1%
"para formaldehyde [Control, reference compound]",Average Death Days,6C3HED lymphosarcoma,10 days
"O=[N+]([O-])C(Br)(CO)CO [Bronopol, 2-bromo-2-nitropropane-1,3-diol]",Fixation of WBC's,WBC's,Fixes both RBC's and WBC's
same,Fixation of RBC's,RBC's,Fixes both RBC's and WBC's
same,Formaldehyde release,[2],Decomposition liberates formaldehyde
"C=O [Formaldehyde, formaldehyde, reference compound]",Disc-gel electrophoresis result with albumin,albumin,a large number of multimers and insoluble proteins result
same,Dermal Toxicity,[3]; in vivo,270 mg/kg
same,Inhalation Toxicity,[3]; in vivo,500 mg/kg
same,LD50,"[3]; in vivo, read-out: LD50",800 mg/kg
"O=C(O)CNCO [Suttocide, Sodium hydroxymethyl glycinate]",Fixation of WBC's,WBC's,Fixes RBC's and WBC's
same,Fixation of RBC's,RBC's,Fixes RBC's and WBC's
same,Formaldehyde content,[2]; [4],1%
